Source: US20240374735A1, “AROMATIC BORON-CONTAINING COMPOUNDS AND INSULIN ANALOGS” (PROTOMER TECHNOLOGIES INC., priority 2020, published 2024)

Test system: diabetic B6 mice (streptozocin)
Assay: Glucose challenge in STZ diabetic mice
Assay type: in vivo
Conditions: injected subcutaneously or intraperitoneally, glucose challenge one hour post-injection
Method: Diabetes was induced in 12-week-old B6 mice using streptozocin (STZ) treatment. Three weeks after the final STZ treatment, blood glucose of the mice was sampled from lateral tail vein to confirm diabetes. Mice with blood glucose of >200 mg/dl were deemed to be diabetic and fasted for 1-6 hours prior to injection. Human insulin and a compound of Formula I in sterile phosphate buffered saline, pH 7.4 were injected either subcutaneously via neck scruff or intraperitoneally, depending on the experiment. Blood glucose was sampled with a glucometer via lateral tail vein at 15-minute intervals. After one hour of initial stabilization of blood glucose levels post-insulin injection, mice were challenged with an intraperitoneal injection of glucose (e.g., 2 g/kg, 4 g/kg, or 6 g/kg; the actual dose depends on the example and experiment) in sterile phosphate buffered saline.

human insulin: Human insulin, comparator in the mouse experiments; biosynthetic human insulin (BHI) in the clamp
Blood glucose response after intraperitoneal glucose bolus: did not activate in a glucose-dependent manner
